Measured values from article PMC8453481, “OFF-State-Specific Inhibition of the Proprotein Convertase Furin” (ACS Chemical Biology, 2021).
Like-named read-outs stand apart in the source and are kept apart here.

What was measured:
[1] = ref 29; cited from earlier work
[2] = molecular target: T1, human furin (Homo sapiens, UniProt P09958); assay: Enzyme kinetics with fluorogenic substrate pyr-ERTKR-AMC, furin; assay type: biochemical; conditions: pH 7.0, 37 °C; for Ki: competitive inhibition model, constant inhibitor concentration, substrate dilution series, triplicate
T1 construct: made in house; host or cells: HEK293S cells, stably transfected (pCDNA3.1(+)), purified from conditioned medium
Description: (§1) HEK293S cells were stably transfected with the coding sequences of human furin,[20] PC5/6 (Arg33-Gly634, UNP[41] Q92824) and PC7 (Pro44-Thr667, UNP[41] Q16549) cloned into the pCDNA3.1(+) vector (ThermoFisher). Cells were grown in DMEM (4.5 g L^–1 glucose, 2 mM L-glutamine, 110 mg l^–1 sodium pyruvate, 3.7 g L^–1 NaHCO3, nonessential amino acids) supplemented with 10% (v/v) FBS. Polyclonal selection of stable cell lines was conducted in the presence of 500 μg mL^–1 G418 (Geneticin). The cells were grown in multilayer flasks (HyperFlask M, Corning) without G418 for large-scale protein expression. The medium of confluent expression cultures was exchanged with DMEM supplemented with 2 mM sodium butyrate as well as with FBS (2% (v/v), furin) or without FBS (PC5/6 and PC7). The medium exchange was repeated five (furin) or two (PC5/6 and PC7) times, and the centrifuged medium (20 min, 5500 g, 4 °C) was stored at −80 °C until further use.
(§2) The purification of human furin from a conditioned medium has been shown previously.[20] […]
(§3) Enzyme kinetic measurements were performed in 100 mM HEPES/NaOH, at pH 7.0, 2 mM CaCl2, and 0.2% (v/v) Triton X 100 with the fluorogenic substrate pyr-ERTKR-7-amino-4-methylcoumarin (Bachem) at 37 °C. The 100 μL reactions were prepared in 96-well black half-area plates (Corning), preincubated for 15 min at 37 °C and measured in a 96-well plate reader (Tecan infinite 200) at excitation and emission wavelengths of 380 and 460 nm. […] The KM values were determined with 1:2 dilution series of the substrate in the absence of an inhibitor (4.7 ± 0.4 μM for furin, 2.5 ± 0.2 μM for PC5/6, and 19.3 ± 0.8 μM for PC7; Figure S7). Enzyme kinetic data were evaluated with GRAPHPAD PRISM (GraphPad Software) using the prebuild “Michaelis–Menten” model to calculate KM and a competitive inhibition model (v = Vmax × S/[S + KM(1 + I/Ki)]; v = reaction velocity, Vmax = maximum velocity, S = substrate concentration, KM = Michaelis–Menten constant, Ki = inhibition constant) for Ki determination. […]

[3] = molecular target: T2, PC5/6 (Homo sapiens, UniProt Q92824); assay: Enzyme kinetics with fluorogenic substrate pyr-ERTKR-AMC, PC5/6; assay type: biochemical; conditions: pH 7.0, 37 °C; for Ki: competitive inhibition model, constant inhibitor concentration, substrate dilution series, triplicate
T2 construct: PC5/6 (Arg33-Gly634, UNP[41] Q92824); made in house; host or cells: HEK293S cells, stably transfected (pCDNA3.1(+)), purified from conditioned medium
T2 sequence (Q92824 33-634): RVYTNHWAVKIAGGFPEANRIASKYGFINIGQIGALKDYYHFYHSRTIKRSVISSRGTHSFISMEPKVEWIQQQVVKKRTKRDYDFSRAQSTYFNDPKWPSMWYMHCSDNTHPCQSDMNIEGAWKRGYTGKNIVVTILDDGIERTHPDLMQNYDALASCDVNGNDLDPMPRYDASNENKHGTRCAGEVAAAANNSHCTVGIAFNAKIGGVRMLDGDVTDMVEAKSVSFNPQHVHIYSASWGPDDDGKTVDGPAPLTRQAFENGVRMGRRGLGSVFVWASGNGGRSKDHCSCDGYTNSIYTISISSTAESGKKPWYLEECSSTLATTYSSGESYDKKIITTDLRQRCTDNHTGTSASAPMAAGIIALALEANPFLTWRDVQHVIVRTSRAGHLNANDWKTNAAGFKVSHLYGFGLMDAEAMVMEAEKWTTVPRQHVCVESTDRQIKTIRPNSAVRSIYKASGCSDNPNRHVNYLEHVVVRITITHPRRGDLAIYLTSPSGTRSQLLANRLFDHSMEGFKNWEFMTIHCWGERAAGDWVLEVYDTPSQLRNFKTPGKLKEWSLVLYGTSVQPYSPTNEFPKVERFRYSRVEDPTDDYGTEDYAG
Description: as §1, §2, §3

[4] = molecular target: T3, PC7 (Homo sapiens, UniProt Q16549); assay: Enzyme kinetics with fluorogenic substrate pyr-ERTKR-AMC, PC7; assay type: biochemical; conditions: for potency loss / increase of the Ki for PC7 compared with furin: Ki PC7 versus Ki furin; for Ki: competitive inhibition model, constant inhibitor concentration, substrate dilution series, triplicate
T3 construct: PC7 (Pro44-Thr667, UNP[41] Q16549); made in house
T3 sequence (Q16549 142-667 limits assumed): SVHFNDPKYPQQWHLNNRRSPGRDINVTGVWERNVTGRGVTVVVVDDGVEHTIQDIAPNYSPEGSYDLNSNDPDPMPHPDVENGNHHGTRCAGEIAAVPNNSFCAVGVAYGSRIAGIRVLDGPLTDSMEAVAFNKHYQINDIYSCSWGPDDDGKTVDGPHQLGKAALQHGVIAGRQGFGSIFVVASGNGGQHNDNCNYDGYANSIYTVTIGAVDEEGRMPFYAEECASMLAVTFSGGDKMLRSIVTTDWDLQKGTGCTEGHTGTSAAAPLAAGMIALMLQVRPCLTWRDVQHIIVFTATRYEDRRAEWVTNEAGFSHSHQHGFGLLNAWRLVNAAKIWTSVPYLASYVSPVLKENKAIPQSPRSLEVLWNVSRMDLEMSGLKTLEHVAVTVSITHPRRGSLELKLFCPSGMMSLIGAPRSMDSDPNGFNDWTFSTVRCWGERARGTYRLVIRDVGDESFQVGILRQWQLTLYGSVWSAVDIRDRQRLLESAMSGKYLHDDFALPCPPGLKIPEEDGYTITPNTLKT
Description: as §1
The purification of human furin from a conditioned medium has been shown previously.[20] PC5/6 and PC7 were purified by immobilized metal affinity chromatography and gel permeation chromatography (GPC), as shown for furin but excluding the inhibitor affinity purification step.[20] PC7 (50 μg mL^–1) was fully activated in 50 mM Tris/HCl, at pH 7.5, 10 mM CaCl2, and 0.15 M NaCl, at pH 7.5, in the presence of 2.0 μg mL^–1 thermolysin for 16 h at 37 °C. To remove thermolysin, the reaction mixture was concentrated in an ultrafiltration device (30 kDa cutoff, amicon, Millipore) and subjected to GPC (both steps at 4 °C). Purified PC5/6 and PC7 were stored at −20 °C.
Enzyme kinetic measurements were performed in 100 mM HEPES/NaOH, at pH 7.0, 2 mM CaCl2, and 0.2% (v/v) Triton X 100 with the fluorogenic substrate pyr-ERTKR-7-amino-4-methylcoumarin (Bachem) at 37 °C. The 100 μL reactions were prepared in 96-well black half-area plates (Corning), preincubated for 15 min at 37 °C and measured in a 96-well plate reader (Tecan infinite 200) at excitation and emission wavelengths of 380 and 460 nm. Because of the autofluorescence of inhibitor 1, the Ki values were determined at constant inhibitor concentrations (1: 20 μM for furin, 15 μM for PC5/6 and 50 μM for PC7; 2: 10 μM for furin, 5 μM for PC5/6 and 15 μM for PC7) and 1:2 dilution series of the substrate (Figure S7). The KM values were determined with 1:2 dilution series of the substrate in the absence of an inhibitor (4.7 ± 0.4 μM for furin, 2.5 ± 0.2 μM for PC5/6, and 19.3 ± 0.8 μM for PC7; Figure S7). Enzyme kinetic data were evaluated with GRAPHPAD PRISM (GraphPad Software) using the prebuild “Michaelis–Menten” model to calculate KM and a competitive inhibition model (v = Vmax × S/[S + KM(1 + I/Ki)]; v = reaction velocity, Vmax = maximum velocity, S = substrate concentration, KM = Michaelis–Menten constant, Ki = inhibition constant) for Ki determination. All measurements were performed in triplicate.

[5] = molecular target: T1, human furin; assay: Crystallography-based inhibitor titration of furin crystals (occupancy refinement); assay type: binding
Description: Because of the lower number of specific interactions, we assumed that the binding affinity of 2 for the S4 pocket is lower as compared to the S1 pocket. […] The strength of the electron density directly correlates to the occupation of the binding sites with the inhibitor. Indeed, we found the S1 pocket already occupied by 2 at 0.4 mM as indicated by the occupancy of 75% from crystallographic refinement (Table S2). […] The refined occupancy of inhibitor 2 at the S1 pocket at 40 mM concentration was 0.94. It should be noted that water molecules occupy the substrate binding pockets in absence of any ligand.[22] The binding sites of these water molecules overlap with the binding sites of the inhibitors and affect crystallographic occupancy refinement. Thus, the refined occupation should always be considered in context with the electron density (Figure 6C–E). […] We also observed a third binding site of 2 and 3 outside of the substrate binding cleft. Here, two inhibitor molecules are stacked between two arginine residues of a crystal contact. This binding mode is specific for the crystal lattice and thus is not expected to occur in solution (Figure S5B, D).
The optimized soaking solutions contained either 1.0 M NaCl, 200 mM Mes/NaOH, at pH 5.5, 10% (w/v) PEG8000, and 20% (v/v) DMSO or 0.25 M NaCl, 200 mM Mes/NaOH, at pH 5.5, 20% (w/v) PEG8000, and 20% (v/v) DMSO and were supplemented with the specific inhibitors. Inhibitors 1 and 2 were soaked at 20 mM concentration in 1 M NaCl containing soaking solution for 0.5 h. Inhibitor 3 and 4 were soaked in 0.25 M NaCl containing soaking solution for 0.5 h at an inhibitor concentration of 100 mM and 20 mM, respectively. For the inhibitor titration experiments with 2, 40 mM, 4 mM, or 0.4 mM of the inhibitor was soaked for 0.5 h in 0.25 M NaCl-containing soaking solution. Soaked crystals were flash cooled in liquid N2. Diffraction data collection was performed at the synchrotron beamline BL14.2[33] (BESSY-II) of Helmholtz-Zentrum Berlin (HZB). The data were processed using XDS[34] with XDS-APP[35] (v2.0) and the CCP4 program suite[36] (v.7.1.001). COOT[37] (v.0.8.9.2) was used for model building. Refinement was performed in PHENIX[38] (v1.18.2) using the PDB ID 5JXG([22]) as an initial model. One specific Rfree-set (initially generated up to 1.0 Å, ref ([22])) was transferred to the data sets prior refinement start. Geometry restraints of the inhibitors were obtained from the PRODRG server[39] and from the GRADE Web server (http://grade.globalphasing.org). All guanylhydrazones were modeled in the E configuration, which is in agreement with previous studies with model compounds.[40] Electron density omit maps were calculated in PHENIX[38] (v1.18.2). PYMOL was used for molecular graphics (http://www.pymol.org) and structural alignments. In the case of inhibitor titration experiments with 2, the structure was first built and refined for a crystal soaked at 40 mM. This structure was used to calculate refinements with (for occupancy calculation) and without (for omit map calculation) an inhibitor in the model for three additional crystals independently soaked at 40 mM, 4 mM, and 0.4 mM (Table S2) obtaining R/Rfree-values of 17.3/19.0, 17.5/19.1, and 17.7/19.3, respectively. The occupancy refinement yielded consistent B-factors between the three differently soaked structures (Table S2). Structure factors and coordinates of the complexes of furin with inhibitors 1, 2, at 1 M NaCl; 2 at 0.25 M NaCl; and 3 and 4 have been deposited as PDB entries 7O1U, 7O1W, 7O1Y, 7O20, and 7O22, respectively.

[6] = molecular target: furin; conditions: read-out: Ki furin (reported), cited from earlier work
[7] = 0.4 mM inhibitor, 0.25 M NaCl soak
[8] = 0.4 mM inhibitor, 0.25 M NaCl soak, * very weak electron density
[9] = 4 mM inhibitor, 0.25 M NaCl soak
[10] = 40 mM inhibitor, 0.25 M NaCl soak
[11] = absence of inhibitor, 1:2 dilution series of the substrate

T1 sequence (P09958 108-574 limits assumed): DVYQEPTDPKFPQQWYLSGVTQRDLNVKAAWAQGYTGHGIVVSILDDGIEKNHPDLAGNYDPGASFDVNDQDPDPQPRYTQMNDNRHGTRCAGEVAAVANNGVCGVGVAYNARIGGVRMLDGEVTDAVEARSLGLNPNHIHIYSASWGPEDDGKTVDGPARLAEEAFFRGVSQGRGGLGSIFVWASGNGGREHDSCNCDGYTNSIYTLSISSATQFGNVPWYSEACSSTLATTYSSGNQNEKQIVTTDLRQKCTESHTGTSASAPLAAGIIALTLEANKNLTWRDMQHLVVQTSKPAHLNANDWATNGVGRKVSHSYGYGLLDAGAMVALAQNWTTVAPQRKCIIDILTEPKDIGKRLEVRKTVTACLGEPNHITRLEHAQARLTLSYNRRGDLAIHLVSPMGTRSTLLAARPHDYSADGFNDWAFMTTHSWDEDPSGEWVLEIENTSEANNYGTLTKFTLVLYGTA

## N=C(N)N/N=C/c1c(Cl)cccc1Cl [guanabenz]
[1]
  pKa: 8.1

## C/C(=N\NC(=N)N)c1cc(N)cc(/C(C)=N/NC(=N)N)c1 [inhibitor 1]
[2]
  Ki: 3.3 ± 0.1 µM
[3]
  Ki: 3.6 ± 0.2 µM
[4]
  potency loss / increase of the Ki for PC7 compared with furin: ~7 fold
[4]; pH 7.0, 37 °C
  Ki: 22.4 ± 1.9 µM

## N=C(N)N/N=C/c1ccc(/C=N/NC(=N)N)cc1 [inhibitor 2]
[2]
  Ki: 3.1 ± 0.2 µM
[3]
  Ki: 1.7 ± 0.2 µM
[4]
  potency loss / increase of the Ki for PC7 compared with furin: ~3 fold
[4]; pH 7.0, 37 °C
  Ki: 10.4 ± 0.7 µM
[5]; [7]
  occupancy at S1 pocket: 75%
  refined occupancy, molecule 1, S1 pocket: 0.75
[5]; [8]
  refined occupancy, molecule 2, S4 pocket: 0.39
  refined occupancy, molecule 3, crystal contact site: 0.35
[5]; [9]
  occupancy at S4 pocket: 63%
  refined occupancy, molecule 1, S1 pocket: 0.87
  refined occupancy, molecule 2, S4 pocket: 0.63
[5]; 4 mM inhibitor, 0.25 M NaCl soak, * very weak electron density
  refined occupancy, molecule 3, crystal contact site: 0.38
[5]; [10]
  occupancy at S4 pocket: 82%
  refined occupancy, molecule 1, S1 pocket: 0.94
  refined occupancy, molecule 2, S4 pocket: 0.82
  refined occupancy, molecule 3, crystal contact site: 0.66
[5]; estimated from inhibitor titration of crystals, 0.25 M NaCl
  apparent dissociation constant at the S4 binding site: low millimolar range

## C/C(=N\NC(=N)N)c1ccccc1 [inhibitor 3]
[6]; ref 26
  Ki: 273 µM

## N=C(N)N/N=C/c1ccccc1OCc1ccc(Cl)cc1 [inhibitor 4]
[6]; ref 24
  Ki: 11.8 µM
[6]; ref 26
  Ki: 25.3 µM

## pyr-ERTKR-7-amino-4-methylcoumarin [reference compound]
[2]; [11]
  Km: 4.7 ± 0.4 µM
[3]; [11]
  Km: 2.5 ± 0.2 µM
[4]; absence of inhibitor, 1:2 dilution series of the substrate, pH 7.0, 37 °C
  Km: 19.3 ± 0.8 µM
